According to patent US9708331B2, “Metabotrophic glutamate receptor 5 modulators and methods of use thereof” (SUNOVION PHARMACEUTICALS INC., priority 2011, dated 2017):

Target: mGluR5 (Homo sapiens, UniProt P41594)
Experiment: mGluR5 PAM EC50 (positive allosteric modulator potency)
Format: cell-based

mGluR5, sequence (P41594 21-1212): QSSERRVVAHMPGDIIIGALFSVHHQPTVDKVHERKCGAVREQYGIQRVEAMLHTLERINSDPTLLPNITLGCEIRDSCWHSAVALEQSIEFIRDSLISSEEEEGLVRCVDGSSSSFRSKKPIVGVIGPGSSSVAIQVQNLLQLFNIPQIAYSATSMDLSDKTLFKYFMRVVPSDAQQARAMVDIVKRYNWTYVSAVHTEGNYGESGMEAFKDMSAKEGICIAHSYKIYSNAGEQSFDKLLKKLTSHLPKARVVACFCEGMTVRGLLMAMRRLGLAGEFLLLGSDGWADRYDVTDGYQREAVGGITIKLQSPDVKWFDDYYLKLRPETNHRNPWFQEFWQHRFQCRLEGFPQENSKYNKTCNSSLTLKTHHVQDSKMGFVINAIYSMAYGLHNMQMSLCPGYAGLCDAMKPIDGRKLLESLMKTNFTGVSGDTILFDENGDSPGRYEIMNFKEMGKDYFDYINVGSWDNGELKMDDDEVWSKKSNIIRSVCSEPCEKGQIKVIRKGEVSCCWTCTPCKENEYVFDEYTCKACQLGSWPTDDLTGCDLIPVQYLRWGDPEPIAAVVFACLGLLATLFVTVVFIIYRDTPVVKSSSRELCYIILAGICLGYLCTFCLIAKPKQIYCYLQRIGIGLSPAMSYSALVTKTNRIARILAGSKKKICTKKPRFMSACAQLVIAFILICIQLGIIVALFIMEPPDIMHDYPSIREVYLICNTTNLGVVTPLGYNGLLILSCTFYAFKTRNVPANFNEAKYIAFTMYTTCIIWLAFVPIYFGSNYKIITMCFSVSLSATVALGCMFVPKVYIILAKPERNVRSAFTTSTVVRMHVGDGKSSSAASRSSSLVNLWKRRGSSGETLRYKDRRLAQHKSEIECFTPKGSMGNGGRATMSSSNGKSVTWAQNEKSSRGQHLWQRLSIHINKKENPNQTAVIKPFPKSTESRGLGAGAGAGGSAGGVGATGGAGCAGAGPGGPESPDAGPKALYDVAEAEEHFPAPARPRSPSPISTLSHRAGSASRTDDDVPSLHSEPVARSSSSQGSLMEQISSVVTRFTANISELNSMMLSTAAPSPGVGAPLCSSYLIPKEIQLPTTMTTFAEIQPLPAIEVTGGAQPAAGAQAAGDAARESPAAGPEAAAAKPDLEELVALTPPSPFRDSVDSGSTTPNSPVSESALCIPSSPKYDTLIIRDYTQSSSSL

| EC50 [nM] | SMILES |
| --- | --- |
| < 10 | CC1(C)CCc2nc3cc(C#Cc4ccncc4F)ccc3c(=O)n2C1 [Example 2.91, 3-((3-fluoropyridin-4-yl)ethynyl)-8,8-dimethyl-8,9-dihydro-6H-pyrido[2,1-b]quinazolin-11(7H)-one] |
| < 10 | CC1(C)CCc2nc3cc(C#Cc4ccnc(F)c4)ccc3c(=O)n2C1 [Example 2.92, 3-((2-fluoropyridin-4-yl)ethynyl)-8,8-dimethyl-8,9-dihydro-6H-pyrido[2,1-b]quinazolin-11(7H)-one] |
| 30 to 100 | CC1(CO)CCc2nc3cc(C#Cc4ccccn4)ccc3c(=O)n2C1 (centres unmarked) [Example 2.99, 8-(hydroxymethyl)-8-methyl-3-(pyridin-2-ylethynyl)-8,9-dihydro-6H-pyrido[2,1-b]quinazolin-11(7H)-one] |
| 100 to 300 | O=c1c2ccc(C#Cc3ccccn3)cc2nc2n1CCC1(CO)CC21 (centres unmarked) [Example 2.103, 1a-(hydroxymethyl)-8-(pyridin-2-ylethynyl)-1,2,3,10b-tetrahydrocyclopropa[3,4]pyrido [2,1-b]quinazolin-5(1aH)-one] |
| 30 to 100 | O=c1c2ccc(C#Cc3ccccn3)cc2nc2n1C[C@H]1CCCN1C2 [Example 2.104, (R)-8-(pyridin-2-ylethynyl)-2,3,13,13a-tetrahydro-1H-pyrrolo[1′,7′:4,5]pyrazino[2,1-b]quinazolin-11(5H)-one] |
| 10 to 30 | N#Cc1ccnc(C#Cc2ccc3c(=O)n4c(nc3c2)CCCCC4)c1 [Example 3.5, 2-((12-oxo-6,7,8,9,10,12-hexahydroazepino[2,1-b]quinazolin-3-yl)ethynyl)isonicotinonitrile] |
| 100 to 300 | O=c1c2ccc(C#Cc3ccccn3)cc2nc2n1CCN1CCC2C1 (centres unmarked) [Example 3.6, 9-(pyridin-2-ylethynyl)-1,2,5,6-tetrahydro-3,6-methano[1,4]diazocino[8,1-b]quinazolin-12(4H)-one] |
| 30 to 100 | O=c1c2ncc(C#Cc3ccccn3)cc2nc2n1CCCC(C(F)(F)F)C2 (centres unmarked) [Example 3.8, 3-(pyridin-2-ylethynyl)-7-(trifluoromethyl)-7,8,9,10-tetrahydropyrido[3′,2′:4,5]pyrimido [1,2-a]azepin-12(6H)-one] |
| 100 to 300 | O=c1c2ncc(C#Cc3ccccn3)cc2nc2n1CCC(F)(F)CC2 [Example 3.16, 8,8-difluoro-3-(pyridin-2-ylethynyl)-7,8,9,10-tetrahydropyrido[3′,2′:4,5]pyrimido [1,2-a]azepin-12(6H)-one] |
| 10 to 30 | CCC1(F)CCc2nc3cc(C#Cc4ccccn4)ccc3c(=O)n2CC1 (centres unmarked) [Example 3.17, 8-ethyl-8-fluoro-3-(pyridin-2-ylethynyl)-7,8,9,10-tetrahydroazepino[2,1-b]quinazolin-12(6H)-one] |
| 30 to 100 | CCC1(F)CCc2nc3cc(C#Cc4ccccn4)cnc3c(=O)n2CC1 (centres unmarked) [Example 3.18, 8-ethyl-8-fluoro-3-(pyridin-2-ylethynyl)-7,8,9,10-tetrahydropyrido[3′,2′:4,5]pyrimido [1,2-a]azepin-12(6H)-one] |
| 30 to 100 | CC1CCc2nc3cc(C#Cc4cc(C#N)ccn4)ccc3c(=O)n2CC1 (centres unmarked) [Example 3.19, 2-((8-methyl-12-oxo-6,7,8,9,10,12-hexahydroazepino[2,1-b]quinazolin-3-yl)ethynyl)isonicotinonitrile] |
| 30 to 100 | Cc1cc(C#Cc2ccccn2)cc2nc3n(c(=O)c12)CCC(C)CC3 (centres unmarked) [Example 3.22, 1,8-dimethyl-3-(pyridin-2-ylethynyl)-7,8,9,10-tetrahydroazepino[2,1-b]quinazolin-12(6H)-one] |
| 100 to 300 | COC1CCc2nc3cc(C#Cc4ccccn4)cnc3c(=O)n2CC1 (centres unmarked) [Example 3.23, 8-methoxy-3-(pyridin-2-ylethynyl)-7,8,9,10-tetrahydropyrido[3′,2′:4,5]pyrimido [1,2-a]azepin-19(6H)-one] |
| 100 to 300 | CC1(F)CCCc2nc3cc(C#Cc4ccccn4)cnc3c(=O)n2C1 (centres unmarked) [Example 3.25, 9-fluoro-9-methyl-3-(pyridin-2-ylethynyl)-7,8,9,10-tetrahydropyrido[3′,2′:4,5]pyrimido [1,2-a]azepin-12(6H)-one] |
| 30 to 100 | O=c1c2ncc(C#Cc3ccccn3)cc2nc2n1CC(F)(F)CCC2 [Example 3.26, 9,9-difluoro-3-(pyridin-2-ylethynyl)-7,8,9,10-tetrahydropyrido[3′,2′:4,5]pyrimido [1,2-a]azepin-12(6H)-one] |
| 30 to 100 | O=c1c2ccc(C#Cc3ccccn3)cc2nc2n1CC1CC(F)(F)CN1CC2 (centres unmarked) [Example 3.33a, 2,2-difluoro-9-(pyridin-2-ylethynyl)-2,3,5,6,14,14a-hexahydropyrrolo[2′,1′:3,4][1,4] diazepino[7,1-b]quinazolin-12(1H)-one] |
| 300 to 1000 | CC12CCCN1CCc1nc3cc(C#Cc4ccccn4)ccc3c(=O)n1C2 (centres unmarked) [Example 3.34, 14a-methyl-9-(pyridin-2-ylethynyl)-2,3,5,6,14,14a-hexahydropyrrolo[2′,1′:3,4][1,4] diazepino[7,1-b]quinazolin-12(1H)-one] |
| 10 to 30 | O=c1c2ccc(C#Cc3ccccn3)cc2nc2n1CC1(CCC2)COC1 [Example 3.38, 3-(pyridin-2-ylethynyl)-7,8-dihydro-6H-spiro[azepino[2,1-b]quinazoline-9,3′-oxetan]-12(10H)-one] |

| EC50 [nM] | SMILES |
| --- | --- |
| 30 to 100 | CC1(C)C=Cc2nc3cc(C#Cc4ccccn4)ccc3c(=O)n2CC1 [Example 3.42, 8,8-dimethyl-3-(pyridin-2-ylethynyl)-9,10-dihydroazepino[2,1-b]quinazolin-12(8H)-one] |
| 300 to 1000 | CC1(C)CCn2c(nc3cc(/C=C/c4cc(C#N)ccn4)ccc3c2=O)C1 [Example 4.1a, (E)-2-(2-(7,7-dimethyl-11-oxo-7,8,9,11-tetrahydro-6H-pyrido[2,1-b]quinazolin-3-yl)vinyl)isonicotinonitrile] |
| 300 to 1000 | CC1(C)CCc2nc3cc(/C=C/c4cc(C#N)ccn4)ccc3c(=O)n2C1 [Example 4.1b, (E)-2-(2-(8,8-dimethyl-11-oxo-7,8,9,11-tetrahydro-6H-pyrido[2,1-b]quinazolin-3-yl)vinyl)isonicotinonitrile] |
| 10 to 30 | Cc1csc(/C=C/c2ccc3c(=O)n4c(nc3c2)CCC(C)(C)C4)n1 [Example 4.3, (E)-8,8-dimethyl-3-(2-(4-methylthiazol-2-yl)vinyl)-8,9-dihydro-6H-pyrido[2,1-b]quinazolin-11(7H)-one] |
| 30 to 100 | CC1(C)CCc2nc3cc(OCc4ccccn4)ccc3c(=O)n2C1 [Example 4.5, 8,8-dimethyl-3-(pyridin-2-ylmethoxy)-8,9-dihydro-6H-pyrido[2,1-b]quinazolin-11(7H)-one] |
| 100 to 300 | CC1(C)CCc2nc3cc(NC(=O)c4ccccn4)ccc3c(=O)n2C1 [Example 4.7, N-(8,8-dimethyl-11-oxo-7,8,9,11-tetrahydro-6H-pyrido[2,1-b]quinazolin-3-yl)picolinamide] |
| 100 to 300 | CC1(C)CCc2nc3cc(C(=O)Nc4ccccn4)ccc3c(=O)n2C1 [Example 4.8, 8,8-dimethyl-11-oxo-N-(pyridin-2-yl)-7,8,9,11-tetrahydro-6H-pyrido[2,1-b]quinazoline-3-carboxamide] |
| 300 to 1000 | CC1(C)Cc2nc3cc(C(=O)Nc4ccccn4)ccc3c(=O)n2C1 [Example 4.17, 2,2-dimethyl-9-oxo-N-(pyridin-2-yl)-1,2,3,9-tetrahydropyrrolo[2,1-b]quinazoline-6-carboxamide] |
| 300 to 1000 | CC1(C)Cc2nc3cc(NC(=O)c4ccccn4)ccc3c(=O)n2C1 [Example 4.18, N-(2,2-dimethyl-9-oxo-1,2,3,9-tetrahydropyrrolo[2,1-b]quinazolin-6-yl)picolinamide] |
| 300 to 1000 | O=C(Nc1ccccn1)c1ccc2c(=O)n3c(nc2c1)CCC(F)(F)CC3 [Example 5.4, 8,8-difluoro-12-oxo-N-(pyridin-2-yl)-6,7,8,9,10,12-hexahydroazepino[2,1-b]quinazoline-3-carboxamide] |
| 300 to 1000 | CC1(C)CCc2nc3cc(Nc4ccccn4)ccc3c(=O)n2C1 [Example 6.2, 8,8-dimethyl-3-(pyridin-2-ylamino)-8,9-dihydro-6H-pyrido[2,1-b]quinazolin-11(7H)-one] |
| 100 to 300 | CC1(C)CCc2nc3cc(COc4ccccn4)ccc3c(=O)n2C1 [Example 6.4, 8,8-dimethyl-3-((pyridin-2-yloxy)methyl)-8,9-dihydro-6H-pyrido[2,1-b]quinazolin-11(7H)-one] |
| 100 to 300 | C/C(=C\c1ccc2c(=O)n3c(nc2c1)CCC(C)(C)C3)c1ccccn1 [Example 6.5, (E)-8,8-dimethyl-3-(2-(pyridin-2-yl)prop-1-en-1-yl)-8,9-dihydro-6H-pyrido[2,1-b]quinazolin-11(7H)-one] |
| 30 to 100 | CC1(C)CCc2nc3cc(C(=O)Cc4ccccn4)ccc3c(=O)n2C1 [Example 6.7, 8,8-dimethyl-3-(2-(pyridin-2-yl)acetyl)-8,9-dihydro-6H-pyrido[2,1-b]quinazolin-11(7H)-one] |
| 300 to 1000 | CC1(C)CCc2nc3cc(NC(=O)Nc4ccccn4)ccc3c(=O)n2C1 [Example 6.12, 1-(8,8-dimethyl-11-oxo-7,8,9,11-tetrahydro-6H-pyrido[2,1-b]quinazolin-3-yl)-3-(pyridin-2-yl)urea] |
| 300 to 1000 | CC1(C)CCc2nc3cc(-c4nc(-c5ccccn5)c[nH]4)ccc3c(=O)n2C1 [Example 6.21, 8,8-dimethyl-3-(4-(pyridin-2-yl)-1H-imidazol-2-yl)-8,9-dihydro-6H-pyrido[2,1-b]quinazolin-11(7H)-one] |
| 100 to 300 | CC1(C)CCc2nc3cc(-c4ncc(-c5ccccn5)o4)ccc3c(=O)n2C1 [Example 6.25, 8,8-dimethyl-3-(5-(pyridin-2-yl)oxazol-2-yl)-8,9-dihydro-6H-pyrido[2,1-b]quinazolin-11(7H)-one] |
| 300 to 1000 | CC1(C)CCc2nc3cc(-c4cnc(-c5ccccn5)s4)ccc3c(=O)n2C1 [Example 6.28, 8,8-dimethyl-3-(2-(pyridin-2-yl)thiazol-5-yl)-8,9-dihydro-6H-pyrido[2,1-b]quinazolin-11(7H)-one] |
| 100 to 300 | CC1(C)CCc2nc3cc(-c4nnc(-c5ccccn5)o4)ccc3c(=O)n2C1 [Example 6.35, 8,8-dimethyl-3-(5-(pyridin-2-yl)-1,3,4-oxadiazol-2-yl)-8,9-dihydro-6H-pyrido[2,1-b]quinazolin-11(7H)-one] |
